Assays:
[1] = system: DU 145 (prostate, carcinoma) cells; experiment: Cell viability assay, CellTiter-Glo (Example 21); assay type: cell-based, human; conditions: 72 h
How it was run: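 DU 145 cancer cell viability was assessed with the CellTiter-Glo® luminescent assay (Promega, Madison, WI, USA), following the manufacturer's instructions. Cells were seeded at 1000 cells/well in flat-bottomed white 96 well plates, and after treatment luminescence was read on a BioTek Synergy 2 Multi-Mode Reader.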

[2] = system: FaDu (pharynx, squamous cell carcinoma) cells; experiment: Cell viability assay, CellTiter-Glo (Example 21); assay type: cell-based, human; conditions: 72 h treatment
How it was run: (§1)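 Seeding density per line: Panc-1 750, FaDu 1000, Detroit 562 and MDA-MB-453 1500 cells/well. Viability after treatment read by CellTiter-Glo luminescence; dose-response curves fitted by four-parameter variable-slope non-linear regression.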

[3] = system: Capan-1 (pancreas, adenocarcinoma) cells; experiment: Cell viability assay, CellTiter-Glo (Example 21); assay type: cell-based, human; conditions: 72 h treatment
How it was run: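 Capan-1 cells were seeded at 1000 cells/well in flat-bottomed white 96 well plates (BRANDplates®), with density optimized for cell size and growth rate. Following compound treatment, viability was measured with the CellTiter-Glo® luminescent assay (Promega) per the manufacturer's instructions, reading luminescence on a BioTek Synergy 2 Multi-Mode Reader.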

[4] = system: Detroit 562 (pharynx, carcinoma) cells; experiment: Cell viability assay, CellTiter-Glo (Example 21); assay type: cell-based, human; conditions: 72 h treatment
How it was run: as §1

[5] = system: Panc-1 (pancreas, carcinoma) cells; experiment: Cell viability assay, CellTiter-Glo (Example 21); assay type: cell-based, human; conditions: 72 h treatment
How it was run: as §1

[6] = system: MDA-MB-231 (breast, adenocarcinoma) cells; experiment: Cell viability assay, CellTiter-Glo (Example 21); assay type: cell-based, human; conditions: 72 h treatment
How it was run: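 MDA-MB-231 breast adenocarcinoma cells were seeded at 1500 cells/well in flat-bottomed white 96 well plates (BRANDplates®, cat. no.: 781965). Following compound exposure, viability was assessed with the CellTiter-Glo® luminescent assay (Promega) following the manufacturer's protocol, and luminescence was read on a BioTek Synergy 2 Multi-Mode Reader.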

[7] = system: MDA-MB-453 (breast, carcinoma) cells; experiment: Cell viability assay, CellTiter-Glo (Example 21); assay type: cell-based, human; conditions: 72 h treatment
How it was run: as §1

[8] = system: LNCaP (prostate, carcinoma) cells; experiment: Cell viability assay, CellTiter-Glo (Example 21); assay type: cell-based, human; conditions: 72 h
How it was run: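 LNCaP prostate carcinoma cell viability was assessed with the CellTiter-Glo® luminescent assay (Promega), following the manufacturer's instructions. Cells were seeded at 1500 cells/well into flat-bottomed white 96 well plates, treated, and then luminescence was read on a BioTek Synergy 2 Multi-Mode Reader. Dose-response curves were fitted in GraphPad Prism 8.4.2 by four-parameter variable-slope non-linear regression.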

[9] = system: SCC-25 (tongue, squamous cell carcinoma) cells; experiment: Cell viability assay, CellTiter-Glo (Example 21); assay type: cell-based, human; conditions: 72 h treatment
How it was run: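 SCC-25 tongue squamous cell carcinoma cells were seeded at 1000 cells/well in flat-bottomed white 96 well plates, treated with compound, and viability was then determined with the CellTiter-Glo luminescent assay (Promega) following the manufacturer's instructions. Luminescence was read on a BioTek Synergy 2 Multi-Mode Reader.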

[10] = system: MIA PaCa-2 (pancreas, carcinoma) cells; experiment: Cell viability assay, CellTiter-Glo (Example 21); assay type: cell-based, human; conditions: 72 h treatment
How it was run: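 MIA PaCa-2 pancreatic carcinoma cells were seeded at 1000 cells/well in flat-bottomed white 96 well plates (BRANDplates®, cat. no.: 781965) and treated with compound. Viability was then determined with the CellTiter-Glo® luminescent cell viability assay (Promega) following the manufacturer's instructions, with luminescence read on a BioTek Synergy 2 Multi-Mode Reader.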

[11] = system: EBC-1 (lung, squamous cell carcinoma) cells; experiment: Cell viability assay, CellTiter-Glo (Example 21); assay type: cell-based, human; conditions: 72 h treatment
How it was run: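 EBC-1 lung squamous cell carcinoma cells were seeded at 1000 cells/well in flat-bottomed white 96 well plates. After compound treatment, viability was measured with the CellTiter-Glo luminescent assay following the manufacturer's instructions, and luminescence was read on a BioTek Synergy 2 Multi-Mode microplate reader.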

[12] = system: PC-3 (prostate, adenocarcinoma) cells; experiment: Cell viability assay, CellTiter-Glo (Example 21); assay type: cell-based, human; conditions: 72 h treatment
How it was run: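 PC-3 prostate adenocarcinoma cells were seeded at 1000 cells/well in flat-bottomed white 96 well plates and treated with compounds. Viability was then determined with the CellTiter-Glo® luminescent assay (Promega) following the manufacturer's instructions, with luminescence read on a BioTek Synergy 2 Multi-Mode Reader.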

[13] = system: PANC-1 (human pancreatic carcinoma) cells; experiment: Impedance-based viability assay (xCELLigence SP), long treatment; assay type: cell-based; conditions: 72 h, read-out: cytotoxicity expressed in IC50, PANC-1
Source text: (Gibco®/Invitrogen Corporation, New York, NY, USA).
Data obtained from each experiment represent mathematical averages.

[14] = system: H2228 lung cancer cell line; experiment: High-throughput screening, CellTiter-Glo cell viability assay at 100 nM; assay type: cell-based, human; conditions: Homo sapiens, NCI-H2228, HTS, compounds at 100 nM, 72 h, read-out: cytotoxicity expressed in IC50, H2228 (results of High throughput screening)
[15] = system: EBC-1 lung cancer cell line; experiment: as above; assay type: cell-based, human; conditions: Homo sapiens, EBC-1, HTS, compounds at 100 nM, 72 h, read-out: cytotoxicity expressed in IC50, EBC-1 (results of High throughput screening)

O=C1C2=C(CCN(Cc3cccc(F)c3)C2)N2CCN=C2N1Cc1ccc(C(F)(F)F)cc1 [I/3, reference compound]
DU 145 cell viability ([1]; 3.7 nM): 102.0 ± 3.5 % of control | DU 145 cell viability ([1]; 11.1 nM): 95.9 ± 5.1 % of control | DU 145 cell viability ([1]; 100 nM): 7.1 ± 1.6 % of control | DU 145 cell viability ([1]; 300 nM): 7.2 ± 1.2 % of control | FaDu (pharynx, squamous cell carcinoma) cell viability (% of control) ([2]; 3.7 nM): 101.6 ± 3.4 % of control | FaDu (pharynx, squamous cell carcinoma) cell viability (% of control) ([2]; 11.1 nM): 100.9 ± 5.9 % of control | FaDu (pharynx, squamous cell carcinoma) cell viability (% of control) ([2]; 100 nM): 26.2 ± 7.9 % of control | FaDu (pharynx, squamous cell carcinoma) cell viability (% of control) ([2]; 300 nM): 22.4 ± 5.9 % of control | Capan-1 (pancreas, adenocarcinoma) cell viability (% of control) ([3]; 3.7 nM): 102.7 ± 6.9 % of control | Capan-1 (pancreas, adenocarcinoma) cell viability (% of control) ([3]; 11.1 nM): 101.5 ± 5.5 % of control | Capan-1 (pancreas, adenocarcinoma) cell viability (% of control) ([3]; 100 nM): 38.7 ± 2.8 % of control | Capan-1 (pancreas, adenocarcinoma) cell viability (% of control) ([3]; 300 nM): 33.0 ± 2.2 % of control | Detroit 562 (pharynx, carcinoma) cell viability (% of control) ([4]; 3.7 nM): 99.5 ± 8.4 % of control | Detroit 562 (pharynx, carcinoma) cell viability (% of control) ([4]; 11.1 nM): 44.3 ± 11.0 % of control | Detroit 562 (pharynx, carcinoma) cell viability (% of control) ([4]; 100 nM): 28.9 ± 5.3 % of control | Detroit 562 (pharynx, carcinoma) cell viability (% of control) ([4]; 300 nM): 28.7 ± 4.1 % of control | Panc-1 (pancreas, carcinoma) cell viability (% of control) ([5]; 3.7 nM): 105.8 ± 4.0 % of control | Panc-1 (pancreas, carcinoma) cell viability (% of control) ([5]; 11.1 nM): 105.7 ± 4.2 % of control | Panc-1 (pancreas, carcinoma) cell viability (% of control) ([5]; 100 nM): 59.9 ± 17.3 % of control | Panc-1 (pancreas, carcinoma) cell viability (% of control) ([5]; 300 nM): 53.9 ± 6.5 % of control | MDA-MB-231 (breast, adenocarcinoma) cell viability (% of control) ([6]; 3.7 nM): 101.4 ± 1.4 % of control | MDA-MB-231 (breast, adenocarcinoma) cell viability (% of control) ([6]; 11.1 nM): 99.8 ± 1.8 % of control | MDA-MB-231 (breast, adenocarcinoma) cell viability (% of control) ([6]; 100 nM): 56.5 ± 3.4 % of control | MDA-MB-231 (breast, adenocarcinoma) cell viability (% of control) ([6]; 300 nM): 53.7 ± 3.1 % of control | MDA-MB-453 (breast, carcinoma) cell viability (% of control) ([7]; 3.7 nM): 110.3 ± 7.7 % of control | MDA-MB-453 (breast, carcinoma) cell viability (% of control) ([7]; 11.1 nM): 97.0 ± 13.3 % of control | MDA-MB-453 (breast, carcinoma) cell viability (% of control) ([7]; 100 nM): 33.2 ± 2.0 % of control | MDA-MB-453 (breast, carcinoma) cell viability (% of control) ([7]; 300 nM): 29.8 ± 1.5 % of control | LNCaP cell viability ([8]; 3.7 nM): 98.7 ± 7.4 % of control | LNCaP cell viability ([8]; 11.1 nM): 95.0 ± 7.4 % of control | LNCaP cell viability ([8]; 100 nM): 13.8 ± 1.7 % of control | LNCaP cell viability ([8]; 300 nM): 12.7 ± 1.2 % of control | SCC-25 (tongue, squamous cell carcinoma) cell viability (% of control) ([9]; 3.7 nM): 101.0 ± 4.9 % of control | SCC-25 (tongue, squamous cell carcinoma) cell viability (% of control) ([9]; 11.1 nM): 95.1 ± 5.1 % of control | SCC-25 (tongue, squamous cell carcinoma) cell viability (% of control) ([9]; 100 nM): 34.9 ± 3.9 % of control | SCC-25 (tongue, squamous cell carcinoma) cell viability (% of control) ([9]; 300 nM): 33.1 ± 1.7 % of control | MIA PaCa-2 (pancreas, carcinoma) cell viability (% of control) ([10]; 3.7 nM): 107.1 ± 16.4 % of control | MIA PaCa-2 (pancreas, carcinoma) cell viability (% of control) ([10]; 11.1 nM): 105.2 ± 3.4 % of control | MIA PaCa-2 (pancreas, carcinoma) cell viability (% of control) ([10]; 100 nM): 17.5 ± 7.9 % of control | MIA PaCa-2 (pancreas, carcinoma) cell viability (% of control) ([10]; 300 nM): 17.2 ± 7.5 % of control | EBC-1 (lung, squamous cell carcinoma) cell viability (% of control) ([11]; 3.7 nM): 97.8 ± 4.0 % of control | EBC-1 (lung, squamous cell carcinoma) cell viability (% of control) ([11]; 11.1 nM): 96.3 ± 1.4 % of control | EBC-1 (lung, squamous cell carcinoma) cell viability (% of control) ([11]; 100 nM): 25.1 ± 0.2 % of control | EBC-1 (lung, squamous cell carcinoma) cell viability (% of control) ([11]; 300 nM): 22.2 ± 0.1 % of control | PC-3 (prostate, adenocarcinoma) cell viability (% of control) ([12]; 3.7 nM): 100.8 ± 4.0 % of control | PC-3 (prostate, adenocarcinoma) cell viability (% of control) ([12]; 11.1 nM): 110.2 ± 4.1 % of control | PC-3 (prostate, adenocarcinoma) cell viability (% of control) ([12]; 100 nM): 34.7 ± 1.0 % of control | PC-3 (prostate, adenocarcinoma) cell viability (% of control) ([12]; 300 nM): 32.3 ± 2.6 % of control | IC50 [13]: 44 nM | IC50 [14]: < 100 nM | IC50 [15]: < 100 nM
